Where two headings read alike, the source gives them in different places.
What was measured:
[1] = tested on: mice; experiment: Protection vs. pentylenetetrazol clonic convulsions; type: in vivo; details: Table I, 316 mg/kg test compound, oral in sesame oil, pentylenetetrazol 80 mg/kg s.c., n.p. = no protection observed; for responders at 316 mg/kg: Mus musculus, read-out: Protection vs. Pentylenetetrazol (numbers of mice protected from clonic convulsion/number tested) (converted)
Experimental: (§1) ^1 The test silane was administered orally in sesame oil vehicle at
^3 Pentylenetetrazol 80 mg/kg s.c. produces clonic convulsions in 90%
of control mice. Values in table are the numbers of mice protected from
clonic convulsion/number tested when dosed with 316 mg/kg test compound.

[2] = tested on: mice; experiment: Potentiation of hexobarbital sleep time (relative sedative activity); type: in vivo, mice (male, Carworth CF1 strain); details: Table I; 316 mg/kg test compound oral, 90 minutes before hexobarbital 100 mg/kg i.p.
Experimental: As a test of relative sedative activity of the various silanes, the ability of each to potentiate the action of hexobarbital was studied. For each silane, two groups of male mice (Carworth CF1 strain) were utilized as test animals. Two groups of mice (six/group) were used, one group was orally dosed with 316 mg./kg. of the test silane in sesame oil carrier 90 minutes before administration of hexobarbital. Hexobarbital was administered by intraperitoneal injection of 100 mg./kg. in saline carrier. The time from loss of the righting reflex to recovery of the righting reflex was recorded as sleep time. Potentiation of hexobarbital of the test silane is the ratio of the mean sleep time by the group of test animals dosed with the silane divided by the mean sleep time of the control group not dosed with silane.
^4 Potentiation of hexobarbital - values are the ratios of sleep time
of animals dosed with 316 mg/kg test compound plus 100 mg/kg hexobarbital
to the sleep times of animals dosed with hexobarbital alone.

[3] = tested on: mice; experiment: Electroshock test (Maximal Electroshock Test, M.E.S.), inhibition of tonic extension of hind limbs; type: in vivo, mice (adult male, Carworth CF 1 strain); details: for ED50: Mus musculus
Experimental: The electroshock test procedure was used to determine anticonvulsant activities of diphenylmethylsilanol. Adult male mice (Carworth CF 1 strain) were utilized as test animals. […] Seizure protection was scored as inhibition of tonic extension. Groups of mice (six/group) were dosed orally with varying amounts of diphenylmethylsilanol in a sesame oil suspension. The dosages ranged from 10 to 1000 mg./kg. and the train of electric shocks was applied 2, 4 and 6 hours after dosing. The effective dose to prevent convulsions in half the animals (ED50) was determined at 2, 4 and 6 hours to be 52, 63, 100 mg/kg, respectively, and the 95 percent CI (confidence interval) was 23 to 114 mg./kg.; 27 to 141 mg./kg.; 47 to 212 mg./kg.
The electric shock test procedure was also used to determine anticonvulsant activities of phenylmethyldimethoxysilane. Adult male mice (Carworth CF 1 strain) were utilized as test animals. […] Seizure protection was scored as in Example 1. Groups of mice ten/group) were dosed orally with varying amounts of phenylmethyldimethoxysilane in a sesame oil solution. The dosages ranged from 25 to 200 mg./kg. and the train of electric shocks was applied 1/2, 1, 11/2, 2 and 3 hours after dosing. The effective dose to prevent convulsions in half the animals (ED50) was determined at 1/2, 1, 11/2, 2 and 3 hours to be 52, 86, 64, 82 and 90 mg./kg., respectively. Utilizing the same electroshock test procedure as set forth in the first paragraph of this example, groups of mice (ten/group) were dosed intraperitoneally with varying amounts of phenylmethyldimethoxysilane in a sesame oil solution. The dosages ranged from 25 to 200 mg./kg. and the train of electric shocks was applied 1/2, 1, 11/2, 2 and 3 hours after dosing. The effective dose to prevent convulsions in half the animals (ED50) was determined at 1/2, 1, 11/2, 2 and 3 hours to be 45, 65, 52, 51 and 70 mg./kg., respectively.
The electric shock test used in Example 1 and 2 was used in determining the anticonvulsant activities of several other silanes.
as §1
^2 M.E.S. - Maximal Electroshock Test - ED50 is dose calculated
to protect 50% of mice from tonic extensor convulsion. The dosages ranged

[4] = tested on: mice; experiment: Acute oral LD50; type: in vivo, mice (male, 25 gm.); details: Table II footnote 2; oral in sesame oil, up to 5000 mg/kg, 14 days
Experimental: (§2) ^1 Male mice, 25 gm. were used. Each compound was
(§3) given orally in sesame oil at doses ranging from
(§4) highest dose was 5000 mg/kg. The mice were
(§5) observed for 14 days and the number of deaths
(§6) was recorded. LD50 values were calculated by […]

[5] = Acute oral LD50; type: in vivo, mice (male, 25 gm.); details: mouse, in vivo; Table II; male mice, oral in sesame oil, highest dose 5000 mg/kg, observed 14 days, Finney's method; read-out: LD50 (95% Confidence Interval)
Experimental: as §2, §3, §4, §5, §6

[6] = Table I, oral, sesame oil, 2 hours after dosing, n.p. = no protection observed, read-out: MES ED50
[7] = Table I, oral, sesame oil, 4 hours after dosing, read-out: MES ED50
[8] = Table I, oral, sesame oil, 6 hours after dosing, read-out: MES ED50

| Compound | Protection vs. Pentylenetetrazol (numbers of mice protected from clonic convulsion/number tested) [1] | Potentiation of Hexobarbital (ratio of sleep time with test compound to hexobarbital alone) [2] | ED50 [3, 6] [mg/kg] | ED50 [3, 7] [mg/kg] | ED50 [3, 8] [mg/kg] | responders at 316 mg/kg [1] [%] | further results |
| --- | --- | --- | --- | --- | --- | --- | --- |
| CCO[Si](C)(OCC)c1ccccc1 [drawing 10; R1=CH3; X=OC2 H5] | n.p. | 1.1 | 180 | 31 | 220 |  |  |
| CO[Si](OC)(OC)c1ccccc1 [drawing 12; X=OCH3] | n.p. | 1.3 | 560 | 300 | 160 |  |  |
| CC(C)O[Si](C)(OC(C)C)c1ccccc1 [drawing 10; R1=CH3; X=OCH(CH3)2] |  | 1.8 | 94 | 84 | 41 | 33.3 |  |
| C[Si](O)(c1ccccc1)c1ccccc1 [drawing 15] |  |  |  |  |  |  | deaths observed at any dose level used [4]: No deaths were observed; LD50 at 336 h [5]: > 5000 mg/kg |
| C=C[Si](OCC)(OCC)c1ccccc1 [drawing 10; R1=CHCH2; X=OC2 H5] |  | 0.9 | 170 | 200 | 200 | 16.7 |  |
| CO[Si](C)(OC)c1ccccc1 [phenylmethyldimethoxysilane] |  | 1.2 | 56 | 50 | 106 | 33.3 | ED50 ([3]; 0.5 h, Example 2, oral, sesame oil solution, 1/2 hour after dosing, ten mice/group, read-out: effective dose to prevent convulsions in half the animals (ED50)): 52 mg/kg; ED50 ([3]; 1.5 h, Example 2, oral, sesame oil solution, 11/2 hours after dosing, ten mice/group, read-out: effective dose to prevent convulsions in half the animals (ED50)): 64 mg/kg; ED50 ([3]; ip, 0.5 h, Example 2, intraperitoneal, sesame oil solution, 1/2 hour after dosing, ten mice/group, read-out: effective dose to prevent convulsions in half the animals (ED50)): 45 mg/kg; ED50 ([3]; ip, 1.5 h, Example 2, intraperitoneal, sesame oil solution, 11/2 hours after dosing, ten mice/group, read-out: effective dose to prevent convulsions in half the animals (ED50)): 52 mg/kg; ED50 ([3]; ip, Example 2, intraperitoneal, sesame oil solution, 1 hour after dosing, ten mice/group, read-out: effective dose to prevent convulsions in half the animals (ED50)): 65 mg/kg; ED50 ([3]; ip, Example 2, intraperitoneal, sesame oil solution, 2 hours after dosing, ten mice/group, read-out: effective dose to prevent convulsions in half the animals (ED50)): 51 mg/kg; ED50 ([3]; ip, Example 2, intraperitoneal, sesame oil solution, 3 hours after dosing, ten mice/group, read-out: effective dose to prevent convulsions in half the animals (ED50)): 70 mg/kg; ED50 ([3]; Example 2, oral, sesame oil solution, 1 hour after dosing, ten mice/group, read-out: effective dose to prevent convulsions in half the animals (ED50)): 86 mg/kg; ED50 ([3]; Example 2, oral, sesame oil solution, 2 hours after dosing, ten mice/group, read-out: effective dose to prevent convulsions in half the animals (ED50)): 82 mg/kg; ED50 ([3]; Example 2, oral, sesame oil solution, 3 hours after dosing, ten mice/group, read-out: effective dose to prevent convulsions in half the animals (ED50)): 90 mg/kg |
| O[Si](c1ccccc1)(c1ccccc1)c1ccccc1 [drawing 9; X=OH] | n.p. | 1.9 | 105 | 60 | 110 |  |  |
| CCO[Si](CC)(OCC)c1ccccc1 [drawing 10; R1=C2 H5; X=OC2 H5] |  | 1.8 | 150 | 180 | 64 | 66.7 |  |
| C[Si](O)(O)c1ccccc1 [drawing 10; R1=CH3; X=OH, phenylmethylsilanediol] |  | 1.8 | 80 | 110 | 80 | 33.3 |  |
| CCO[Si](C)(C)c1ccccc1 [drawing 8; R1=CH3; R2=CH3; X=OC2 H5] |  | > 1.3 | 200 | 213 | 350 | 33.3 |  |
| C[Si](O)(c1ccccc1)c1ccccc1 [diphenylmethylsilanol] |  | 1.5 | 52 | 63 | 100 | 50 | ED50 ([3]; Example 1, oral, sesame oil suspension, 2 hours after dosing, 95 percent CI 23 to 114 mg./kg., six mice/group, read-out: effective dose to prevent convulsions in half the animals (ED50)): 52 mg/kg; ED50 ([3]; Example 1, oral, sesame oil suspension, 4 hours after dosing, 95 percent CI 27 to 141 mg./kg., six mice/group, read-out: effective dose to prevent convulsions in half the animals (ED50)): 63 mg/kg; ED50 ([3]; Example 1, oral, sesame oil suspension, 6 hours after dosing, 95 percent CI 47 to 212 mg./kg., six mice/group, read-out: effective dose to prevent convulsions in half the animals (ED50)): 100 mg/kg |
| CC(=O)O[Si](C)(OC(C)=O)c1ccccc1 [drawing 10; R1=CH3; X=drawing 11] | n.p. | 1.8 | 200 | 125 | 142 |  |  |
| CCO[Si](OCC)(OCC)c1ccccc1 [.phi.Si(OCH2 CH3)3] | n.p. | 2.1 | 170 | 31 | 220 |  | LD50 at 336 h [5]: 5140 mg/kg |
| CCO[Si](C)(C)c1ccccc1 [drawing 14] |  |  |  |  |  |  | LD50 at 336 h [5]: 5380 mg/kg |
| CC[Si](O)(O)c1ccccc1 [drawing 10; R1=C2 H5; X=OH] |  | 1.7 | 120 | 160 |  | 100 |  |
| C[Si](C)(O)c1ccccc1 [drawing 8; R1=CH3; R2=CH3; X=OH] |  | 2.7 | 118 | 135 | 110 | 33.3 |  |
| CC(C)O[Si](OC(C)C)(OC(C)C)c1ccccc1 [drawing 12; X=OCH(CH3)2] | n.p. | 2.1 |  | > 1000 | 800 |  | MES ED50 ([3]; Table I, oral, sesame oil, 2 hours after dosing, n.p. = no protection observed): n.p. |
